# Key:
# [1] = target: T1, Ba/F3 cells TPM3-TRKA (Homo sapiens, UniProt P04629); assay: Ba/F3 cell proliferation assay, TPM3-TRKA; format: cell-based; conditions: 72 hours, CellTiter-Glo, read-out: TPM3-NTRK1-wt IC50
# T1 construct: host or cells: Ba/F3 (RIKEN), retroviral pMSCV-puro; the other entry of the earlier key: TPM3 (P06753, Tropomyosin alpha-3 chain)
# Outline: (§1)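 Stable fusion-expressing Ba/F3 clones, 1,000 cells/well. Compounds for 72 h, CellTiter-Glo readout; IC50 by 4-parameter logistic regression.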
# [2] = target: T2, Ba/F3 cells CD74-ROS1 G2032R (Homo sapiens, UniProt P08922, G2032R); assay: Ba/F3 cell proliferation assay, CD74-ROS1 G2032R; format: cell-based; conditions: 72 hours, CellTiter-Glo
# T2 construct: fusion of the C-terminus of ROS1 with the N-terminus of various partner proteins; host or cells: Ba/F3 (RIKEN), retroviral pMSCV-puro; the other entry of the earlier key: CD74 (P04233, HLA class II histocompatibility antigen gamma chain)
# T2 sequence (P08922 1883-2347 G2032R limits assumed): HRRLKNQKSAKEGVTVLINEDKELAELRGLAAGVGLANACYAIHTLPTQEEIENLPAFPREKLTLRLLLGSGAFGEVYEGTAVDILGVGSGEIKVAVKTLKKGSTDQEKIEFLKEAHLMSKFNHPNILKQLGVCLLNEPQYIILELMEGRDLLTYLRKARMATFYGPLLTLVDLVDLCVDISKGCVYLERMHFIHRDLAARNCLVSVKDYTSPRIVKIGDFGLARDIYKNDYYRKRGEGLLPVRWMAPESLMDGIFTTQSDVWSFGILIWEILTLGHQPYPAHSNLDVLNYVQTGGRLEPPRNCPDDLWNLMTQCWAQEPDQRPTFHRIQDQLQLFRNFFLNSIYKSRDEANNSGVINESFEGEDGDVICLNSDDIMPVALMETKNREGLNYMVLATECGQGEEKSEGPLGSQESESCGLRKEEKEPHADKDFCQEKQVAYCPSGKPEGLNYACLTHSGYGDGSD
# Outline: (§2)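 IL-3-independent Ba/F3 CD74-ROS1 lines, puromycin-selected monoclones; 1,000 cells/well, plated 1 d before dosing; 3-fold serial dilutions, 72 h; CellTiter-Glo luminescence; IC50 by 4-parameter logistic regression.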
# [3] = target: T3, Ba/F3 cells EML4-ALK L1196M/G1202R (variant 1) (Homo sapiens, UniProt Q9UM73, G1202R/L1196M); assay: Ba/F3 cell proliferation assay, EML4-ALK L1196M/G1202R (variant 1); format: cell-based; conditions: 72 hours, CellTiter-Glo
# T3 construct: echinoderm microtubule-associated protein-like 4 (EML4) gene and the ALK tyrosine kinase domain; host or cells: Ba/F3 (RIKEN), retroviral pMSCV-puro; the other entry of the earlier key: EML4 (Q9HC35, Echinoderm microtubule-associated protein-like 4)
# T3 sequence (Q9UM73 with tags, fused parts or gaps L1196M/G1202R): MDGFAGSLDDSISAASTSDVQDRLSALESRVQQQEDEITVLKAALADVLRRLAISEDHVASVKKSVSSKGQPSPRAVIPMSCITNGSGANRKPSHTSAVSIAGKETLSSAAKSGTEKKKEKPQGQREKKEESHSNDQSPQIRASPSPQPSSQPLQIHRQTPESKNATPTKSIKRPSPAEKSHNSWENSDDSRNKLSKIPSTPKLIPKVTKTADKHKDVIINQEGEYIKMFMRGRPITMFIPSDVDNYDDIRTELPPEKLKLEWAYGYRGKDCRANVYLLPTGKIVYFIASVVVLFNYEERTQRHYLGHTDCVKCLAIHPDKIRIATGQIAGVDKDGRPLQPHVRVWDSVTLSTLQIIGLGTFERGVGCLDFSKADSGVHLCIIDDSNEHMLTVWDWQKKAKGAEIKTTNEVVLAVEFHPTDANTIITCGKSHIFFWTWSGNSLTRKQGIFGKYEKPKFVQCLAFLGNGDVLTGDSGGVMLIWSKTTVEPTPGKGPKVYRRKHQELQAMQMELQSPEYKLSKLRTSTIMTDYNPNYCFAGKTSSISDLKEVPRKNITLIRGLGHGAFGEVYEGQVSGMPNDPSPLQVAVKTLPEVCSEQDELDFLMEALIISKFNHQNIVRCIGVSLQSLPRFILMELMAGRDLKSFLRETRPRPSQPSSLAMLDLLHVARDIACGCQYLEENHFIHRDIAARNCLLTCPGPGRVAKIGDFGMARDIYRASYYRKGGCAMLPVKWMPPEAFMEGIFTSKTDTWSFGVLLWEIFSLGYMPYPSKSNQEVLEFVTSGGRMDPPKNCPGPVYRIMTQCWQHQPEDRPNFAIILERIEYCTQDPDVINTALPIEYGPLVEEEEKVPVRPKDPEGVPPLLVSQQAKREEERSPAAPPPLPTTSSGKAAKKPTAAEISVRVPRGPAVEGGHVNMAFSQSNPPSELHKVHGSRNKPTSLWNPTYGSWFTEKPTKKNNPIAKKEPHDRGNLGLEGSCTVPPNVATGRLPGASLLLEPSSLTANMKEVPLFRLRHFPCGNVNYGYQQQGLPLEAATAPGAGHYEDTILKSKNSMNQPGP
# Outline: as §1
# [4] = target: T4, ALK L1196M/G1202R (Homo sapiens, UniProt Q9UM73, G1202R/L1196M); assay: Biochemical kinase assay, ALK L1196M/G1202R kinase domain; conditions: apparent inhibitory constant, Morrison equation; ATP 2 mM in substrate solution; read-out: ALK-L1196M-G1202R Ki^app
# T4 construct: purchased SignalChem A19-12NG
# T4 sequence (Q9UM73 1116-1392 L1196M/G1202R limits assumed): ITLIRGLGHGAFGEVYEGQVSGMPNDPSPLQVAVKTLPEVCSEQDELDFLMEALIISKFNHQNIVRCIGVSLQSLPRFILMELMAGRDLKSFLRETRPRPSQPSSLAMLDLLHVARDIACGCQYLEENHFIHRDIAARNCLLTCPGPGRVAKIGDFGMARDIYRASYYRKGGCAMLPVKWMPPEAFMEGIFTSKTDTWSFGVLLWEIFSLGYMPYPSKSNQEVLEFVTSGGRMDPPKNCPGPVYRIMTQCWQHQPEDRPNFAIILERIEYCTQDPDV
# Outline: (§3)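 Compound in DMSO added first, then substrate solution (ATP 2 mM; AQT0101 or AQT0104, 26 μM; pH 7.5 HEPES, 10 mM MgCl2), then kinase solution with enzyme at 0.5–3 nM depending on construct. Kinetic read every 2 min for 120 min at 30° C; Ki^app by Morrison regression.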
# [5] = target: T5, ALK-wt (Homo sapiens, UniProt Q9UM73); assay: Biochemical kinase assay, ALK-wt kinase domain; conditions: apparent inhibitory constant, Morrison equation; ATP 2 mM in substrate solution; read-out: ALK-wt Ki^app
# T5 construct: purchased Carna 08-518
# T5 sequence (Q9UM73 1116-1392 limits assumed): as the sequence (Q9UM73 1116-1392 L1196M/G1202R limits assumed) above, with M81L, R87G counted along it
# Outline: as §3
# [6] = target: T6, ROS1-G2032R (Homo sapiens, UniProt P08922, G2032R); assay: Biochemical kinase assay, ROS1-G2032R kinase domain; conditions: apparent inhibitory constant, Morrison equation; ATP 2 mM in substrate solution; read-out: ROS1-G2032R Ki^app
# T6 construct: purchased SignalChem R14-12BG
# T6 sequence (P08922 1945-2222 G2032R limits assumed): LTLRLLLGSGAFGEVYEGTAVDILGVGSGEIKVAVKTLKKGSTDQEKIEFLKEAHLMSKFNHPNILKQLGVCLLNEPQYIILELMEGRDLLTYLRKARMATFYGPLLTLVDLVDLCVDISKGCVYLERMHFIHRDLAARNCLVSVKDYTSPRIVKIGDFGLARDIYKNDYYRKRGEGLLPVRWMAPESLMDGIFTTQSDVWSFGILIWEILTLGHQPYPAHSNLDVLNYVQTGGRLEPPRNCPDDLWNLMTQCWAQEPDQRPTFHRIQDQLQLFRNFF
# Outline: (§4)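 Kinetic read: 485 nm, 2-min intervals, 120 min, 30 °C. Substrate mix — ATP 2 mM, AQT0101 26 μM, HEPES 50 mM pH 7.5, MgCl2 10 mM. Output: Ki^app, Morrison equation.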
# [7] = target: T7, ROS1-wt (Homo sapiens, UniProt P08922); assay: Biochemical kinase assay, ROS1-wt kinase domain; conditions: apparent inhibitory constant, Morrison equation; ATP 2 mM in substrate solution; read-out: ROS1-wt Ki^app
# T7 construct: purchased Carna 08-163
# T7 sequence (P08922 1945-2222 limits assumed): as the sequence (P08922 1945-2222 G2032R limits assumed) above, with R88G counted along it
# Outline: as §4
# [8] = target: T8, Ba/F3 cells CD74-ROS1 wild-type (wt) (Homo sapiens, UniProt P08922); assay: Ba/F3 cell proliferation assay, CD74-ROS1 wild-type; format: cell-based; conditions: 72 hours, CellTiter-Glo
# T8 construct: fusion of the C-terminus of ROS1 with the N-terminus of various partner proteins; host or cells: Ba/F3 (RIKEN), retroviral pMSCV-puro; the other entry of the earlier key: CD74 (P04233, HLA class II histocompatibility antigen gamma chain)
# T8 sequence (P08922 1883-2347 limits assumed): as the sequence (P08922 1883-2347 G2032R limits assumed) above, with R150G counted along it
# Outline: as §2
# [9] = target: T9, TRKA-wt (Homo sapiens, UniProt P04629); assay: Biochemical kinase assay, TRKA-wt kinase domain; conditions: apparent inhibitory constant, Morrison equation; ATP 2 mM in substrate solution; read-out: TRKA-wt Ki^app
# T9 construct: or TRKA-wt (1 nM, BPS Bio, 40280) kinase domains in buffer; purchased BPS Bio 40280
# T9 sequence (P04629 510-781 limits assumed): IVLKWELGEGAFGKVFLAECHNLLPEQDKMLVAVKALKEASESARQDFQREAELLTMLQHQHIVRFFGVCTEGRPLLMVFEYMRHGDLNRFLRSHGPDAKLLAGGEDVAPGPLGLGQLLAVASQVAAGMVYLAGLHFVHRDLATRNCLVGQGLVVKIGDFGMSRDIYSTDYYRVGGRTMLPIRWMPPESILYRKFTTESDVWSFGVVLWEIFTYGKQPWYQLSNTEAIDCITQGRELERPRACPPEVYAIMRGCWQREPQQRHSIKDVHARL
# Outline: as §3
# [10] = tested on: TPM3-NTRK1-wt IC50 / primary target IC50 (e.g. CD74-ROS1-wt); assay: TRKA selectivity in Ba/F3 cells (TRKA potency divided by primary target potency); format: cell-based; conditions: for TPM3-NTRK1-wt/CD74-ROS1-G2032R selectivity ratio: TRKA potency / CD74-ROS1-G2032R potency; for TPM3-NTRK1-wt/CD74-ROS1-wt selectivity ratio: TRKA potency / CD74-ROS1-wt potency; for TPM3-NTRK1-wt/EML4-ALK-L1196M-G1202R selectivity ratio: TRKA potency / EML4-ALK-L1196M-G1202R potency; for TPM3-NTRK1-wt/EML4-ALK-wt selectivity ratio: TRKA potency / EML4-ALK-wt potency
# Experimental: TRKA selectivity was calculated by dividing a compound's TRKA potency by its primary target potency (e.g. TPM3-NTRK1-wt IC50/CD74-ROS1-wt IC50). Compound selectivity can be interpreted by binning ratio values: bin A for very high selectivity, ratio >30-fold; bin B for high selectivity, ratio >10-fold; bin C for moderate selectivity, ratio ≥1; and bin D for low selectivity, ratio <1. […] (nd=not determined).
# [11] = target: T10, Ba/F3 cells EML4-ALK wt (variant 1) (Homo sapiens, UniProt Q9UM73); assay: Ba/F3 cell proliferation assay, EML4-ALK wt (variant 1); format: cell-based; conditions: 72 hours, CellTiter-Glo
# T10 construct: echinoderm microtubule-associated protein-like 4 (EML4) gene and the ALK tyrosine kinase domain; host or cells: Ba/F3 (RIKEN), retroviral pMSCV-puro; the other entry of the earlier key: EML4 (Q9HC35, Echinoderm microtubule-associated protein-like 4)
# T10 sequence (Q9UM73 with tags, fused parts or gaps): as the sequence (Q9UM73 with tags, fused parts or gaps L1196M/G1202R) above, with M635L, R641G counted along it
# Outline: as §1
# T1 sequence (P04629 510-796 limits assumed): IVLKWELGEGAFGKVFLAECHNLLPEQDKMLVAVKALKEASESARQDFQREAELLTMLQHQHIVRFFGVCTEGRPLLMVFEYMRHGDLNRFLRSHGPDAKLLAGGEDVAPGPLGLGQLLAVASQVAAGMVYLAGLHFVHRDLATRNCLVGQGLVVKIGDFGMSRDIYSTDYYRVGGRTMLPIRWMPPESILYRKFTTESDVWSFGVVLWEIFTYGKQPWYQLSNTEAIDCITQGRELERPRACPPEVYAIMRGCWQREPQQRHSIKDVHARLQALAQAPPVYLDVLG
Compound,IC50 [1],IC50 [2],IC50 [3],Ki [4],Ki [5],Ki [6],Ki [7],IC50 [8],Ki [9],TPM3-NTRK1-wt/CD74-ROS1-G2032R selectivity ratio [10],TPM3-NTRK1-wt/CD74-ROS1-wt selectivity ratio [10],TPM3-NTRK1-wt/EML4-ALK-L1196M-G1202R selectivity ratio [10],TPM3-NTRK1-wt/EML4-ALK-wt selectivity ratio [10],IC50 [11]
"CCc1snc2c1-c1cnc(N)c(c1)O[C@H](C)c1cc(F)ccc1-c1nn(C)nc1C2 [Example 87, (19R)-3-ethyl-16-fluoro-10,19-dimethyl-20-oxa-4-thia-5,9,10,11,23-pentaazapentacyclo[19.3.1.0^2,^6.0^8,^12.0^13,^18]pentacosa-1(24),2,5,8,11,13,15,17,21(25),22-decaen-22-amine]",0.05 to 0.5 µM,0.0001 to 0.05 µM,> 0.5 µM,0.05 to 0.5 µM,< 0.05 µM,0.05 to 0.5 µM,< 0.05 µM,0.0001 to 0.05 µM,> 0.5 µM,"B (bin B for high selectivity, ratio >10-fold)","A (bin A for very high selectivity, ratio >30-fold)","D (bin D for low selectivity, ratio <1)","A (bin A for very high selectivity, ratio >30-fold)",0.0001 to 0.05 µM
"CCn1nc2c(n1)-c1ccc(F)cc1[C@@H](C)Oc1cc(cnc1N)-c1c(cnn1CC)C2 [Example 88, (19R)-3,10-diethyl-16-fluoro-19-methyl-20-oxa-3,4,9,10,11,23-hexaazapentacyclo(19.3.1.0^2,^6.0^8,^12.0^13,^18]pentacosa-1(24),2(6),4,8,11,13,15,17,21(25),22-decaen-22-amine]",0.05 to 0.5 µM,0.0001 to 0.05 µM,0.05 to 0.5 µM,< 0.05 µM,< 0.05 µM,< 0.05 µM,< 0.05 µM,0.0001 to 0.05 µM,0.05 to 0.5 µM,"A (bin A for very high selectivity, ratio >30-fold)","A (bin A for very high selectivity, ratio >30-fold)","C (bin C for moderate selectivity, ratio ≥1)","B (bin B for high selectivity, ratio >10-fold)",0.0001 to 0.05 µM
"C[C@H]1Oc2cc(cnc2N)-c2c(c(Cl)nn2CC2CC2)Cc2nn(C)cc2-c2ccc(F)cc21 [Example 90, (19R)-5-chloro-3-(cyclopropylmethyl)-16-fluoro-10,19-dimethyl-20-oxa-3,4,9,10,23-pentaazapentacyclo[19.3.1.0^2,^6.0^8,^12.0^13,^18]pentacosa-1(24),2(6),4,8,11,13,15,17,21(25),22-decaen-22-amine]",> 0.5 µM,0.0001 to 0.05 µM,0.05 to 0.5 µM,< 0.05 µM,< 0.05 µM,< 0.05 µM,< 0.05 µM,0.0001 to 0.05 µM,> 0.5 µM,"A (bin A for very high selectivity, ratio >30-fold)","A (bin A for very high selectivity, ratio >30-fold)","A (bin A for very high selectivity, ratio >30-fold)","A (bin A for very high selectivity, ratio >30-fold)",0.0001 to 0.05 µM
"Cc1cc2n(n1)Cc1cnn(CCF)c1-c1cnc(N)c(c1)O[C@H](C)c1cc(F)ccc1-2 [Example 92, (19R)-16-fluoro-3-(2-fluoroethyl)-10,19-dimethyl-20-oxa-3,4,8,9,23-pentaazapentacyclo[19.3.1.0^2,^6.0^8,^12.0^13,^18]pentacosa-1(24),2(6),4,9,11,13,15,17,21(25),22-decaen-22-amine]",0.05 to 0.5 µM,0.0001 to 0.05 µM,0.05 to 0.5 µM,< 0.05 µM,< 0.05 µM,< 0.05 µM,< 0.05 µM,0.0001 to 0.05 µM,> 0.5 µM,"A (bin A for very high selectivity, ratio >30-fold)","A (bin A for very high selectivity, ratio >30-fold)","C (bin C for moderate selectivity, ratio ≥1)","B (bin B for high selectivity, ratio >10-fold)",0.0001 to 0.05 µM
"CCc1nn(C)c2c1-c1cnc(N)c(c1)O[C@H](C)c1cc(F)ccc1-c1nn(C)nc1C2 [Example 98, (19R)-3-ethyl-16-fluoro-5,10,19-trimethyl-20-oxa-4,5,9,10,11,23-hexaazapentacyclo[19.3.1.0^2,^6.0^8,^12.0^13,^18]pentacosa-1(24),2(6),3,8,11,13,15,17,21(25),22-decaen-22-amine]",0.05 to 0.5 µM,0.0001 to 0.05 µM,0.0001 to 0.05 µM,< 0.05 µM,< 0.05 µM,< 0.05 µM,< 0.05 µM,0.0001 to 0.05 µM,0.05 to 0.5 µM,"A (bin A for very high selectivity, ratio >30-fold)","A (bin A for very high selectivity, ratio >30-fold)","C (bin C for moderate selectivity, ratio ≥1)","A (bin A for very high selectivity, ratio >30-fold)",0.0001 to 0.05 µM

# From patent US12054498B2, “Heteroaromatic macrocyclic ether chemotherapeutic agents” (Nuvalent, Inc., priority 2020, dated 2024)
